The source made the active and inactive calls.
How the values were obtained:
[1] = target: T1, Androgen receptor (Homo sapiens, UniProt P10275); experiment: Antagonist activity at androgen receptor in human MDA-kb2 cells assessed as inhibition of DHT-induced luciferase activity by luciferase reporter gene assay
T1 sequence (P10275 whole entry): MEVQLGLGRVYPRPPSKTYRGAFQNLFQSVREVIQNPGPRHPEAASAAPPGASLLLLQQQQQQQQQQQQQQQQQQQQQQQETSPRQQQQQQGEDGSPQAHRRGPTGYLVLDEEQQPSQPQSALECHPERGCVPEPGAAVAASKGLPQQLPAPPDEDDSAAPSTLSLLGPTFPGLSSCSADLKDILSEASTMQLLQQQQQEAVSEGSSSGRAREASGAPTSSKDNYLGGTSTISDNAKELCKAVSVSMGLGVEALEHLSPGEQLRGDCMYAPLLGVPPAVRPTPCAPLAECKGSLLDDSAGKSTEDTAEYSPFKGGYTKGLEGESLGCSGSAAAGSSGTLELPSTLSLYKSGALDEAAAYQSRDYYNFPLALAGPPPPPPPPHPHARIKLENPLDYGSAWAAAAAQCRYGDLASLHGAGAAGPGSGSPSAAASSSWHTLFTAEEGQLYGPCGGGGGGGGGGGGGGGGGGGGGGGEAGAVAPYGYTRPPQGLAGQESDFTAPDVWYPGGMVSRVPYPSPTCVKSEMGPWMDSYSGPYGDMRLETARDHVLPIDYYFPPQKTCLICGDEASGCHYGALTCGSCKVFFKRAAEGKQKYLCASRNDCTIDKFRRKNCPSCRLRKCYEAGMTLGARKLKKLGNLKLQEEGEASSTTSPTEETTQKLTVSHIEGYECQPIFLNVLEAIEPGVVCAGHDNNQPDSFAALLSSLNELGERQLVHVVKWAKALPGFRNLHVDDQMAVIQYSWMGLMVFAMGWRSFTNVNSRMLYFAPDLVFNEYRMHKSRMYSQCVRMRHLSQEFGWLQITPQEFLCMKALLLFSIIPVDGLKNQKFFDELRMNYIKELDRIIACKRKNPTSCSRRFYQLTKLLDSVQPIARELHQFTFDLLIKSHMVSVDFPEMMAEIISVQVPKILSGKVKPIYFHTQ

[2] = target: T2, Glucocorticoid receptor (Homo sapiens) (UniProt P04150); conditions: MDA-kb2
T2 sequence (whole entry): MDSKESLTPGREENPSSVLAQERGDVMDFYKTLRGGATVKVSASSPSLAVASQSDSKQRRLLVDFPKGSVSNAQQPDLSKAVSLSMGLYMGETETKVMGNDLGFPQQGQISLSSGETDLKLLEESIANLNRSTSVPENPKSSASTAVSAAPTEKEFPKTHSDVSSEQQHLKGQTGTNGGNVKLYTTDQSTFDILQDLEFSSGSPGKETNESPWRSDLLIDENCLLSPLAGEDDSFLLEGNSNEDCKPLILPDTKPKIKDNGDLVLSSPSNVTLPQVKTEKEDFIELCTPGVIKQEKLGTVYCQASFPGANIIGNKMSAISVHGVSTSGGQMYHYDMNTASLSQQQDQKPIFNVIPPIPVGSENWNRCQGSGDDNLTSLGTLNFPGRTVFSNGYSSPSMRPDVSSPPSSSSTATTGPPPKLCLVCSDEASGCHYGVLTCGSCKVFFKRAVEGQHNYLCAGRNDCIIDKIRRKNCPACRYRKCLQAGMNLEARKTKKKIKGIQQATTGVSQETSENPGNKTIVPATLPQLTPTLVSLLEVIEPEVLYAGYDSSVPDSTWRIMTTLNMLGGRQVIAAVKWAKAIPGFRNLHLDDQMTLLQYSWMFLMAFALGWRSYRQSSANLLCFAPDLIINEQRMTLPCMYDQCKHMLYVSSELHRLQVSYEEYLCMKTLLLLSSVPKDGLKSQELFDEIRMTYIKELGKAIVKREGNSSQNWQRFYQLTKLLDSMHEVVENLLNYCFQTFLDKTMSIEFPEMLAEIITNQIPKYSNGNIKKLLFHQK

[3] = target: T3, Androgen receptor (Homo sapiens) (UniProt P10275); conditions: MDA-kb2
T3 sequence (whole entry): T1 sequence (P10275 whole entry)
Description: Agonist activity at androgen receptor in human MDA-kb2 cells assessed as stimulation of luciferase activity by luciferase reporter gene assay

[4] = target: T2, Glucocorticoid receptor (Homo sapiens); conditions: MDA-kb2; remark: listed apart in the source
Description: Agonist activity at glucocorticoid receptor in human MDA-kb2 cells assessed as stimulation of luciferase activity at 100 uM by luciferase reporter gene assay

[5] = target: T3, Androgen receptor (Homo sapiens); conditions: MDA-kb2; remark: listed apart in the source
Description: Agonist activity at androgen receptor in human MDA-kb2 cells assessed as stimulation of luciferase activity at 100 uM by luciferase reporter gene assay

[6] = target: T1, Androgen receptor; experiment: Antagonist activity at androgen receptor in human MDA-kb2 cells assessed as inhibition of DHT-induced luciferase activity at 100 uM by luciferase reporter gene assay; assay type: functional, cell-based
[7] = target: T2, Glucocorticoid receptor (Homo sapiens); experiment: Agonist activity at glucocorticoid receptor in human MDA-kb2 cells assessed as stimulation of luciferase activity by luciferase reporter gene assay in presence of glucocorticoid receptor agonist Dex; assay type: functional, cell-based
[8] = target: T2, Glucocorticoid receptor (Homo sapiens); experiment: Agonist activity at glucocorticoid receptor in human MDA-kb2 cells assessed as stimulation of luciferase activity at 0.03 mM by luciferase reporter gene assay in presence of androgen receptor agonist DHT; assay type: functional, cell-based
[9] = target: T3, Androgen receptor (Homo sapiens); experiment: Ratio of compound EC150 to DHT EC150 for androgen receptor in human MDA-kb2 cells; assay type: cell-based
[10] = target: T2, Glucocorticoid receptor (Homo sapiens); experiment: Ratio of compound EC150 to DHT EC150 glucocorticoid receptor in human MDA-kb2 cells; assay type: cell-based
[11] = target: T3, Androgen receptor (Homo sapiens); experiment: Ratio of compound EC150 to Dex EC150 for androgen receptor in human MDA-kb2 cells; assay type: cell-based
[12] = target: T2, Glucocorticoid receptor (Homo sapiens); experiment: Ratio of compound EC150 to Dex EC150 for glucocorticoid receptor in human MDA-kb2 cells; assay type: cell-based
[13] = target: T2, Glucocorticoid receptor (Homo sapiens); experiment: Agonist activity at glucocorticoid receptor in human MDA-kb2 cells assessed as stimulation of luciferase activity by luciferase reporter gene assay in presence of androgen receptor agonist DHT; assay type: functional, cell-based

COc1ccc2c(c1)C(=O)CC(c1ccccc1)O2 (stereo not drawn)
IC50 [1]: 39.5 µM | EC150 [2]: 4.08 µM

O=c1cc(-c2ccccc2)oc2cccc(O)c12
EC150 [3]: 6 µM | EC150 [2]: 6 µM

O=c1c(O)c(-c2ccccc2)oc2ccccc12 [FLAVONOL]
EC150 [4]: inactive | IC50 [1]: 23.5 µM | EC150 [5]: inactive

COc1ccc2c(c1)OC(c1ccccc1)CC2=O (stereo not drawn)
EC150 [4]: inactive | EC150 [5]: inactive

O=C1C[C@@H](c2ccc(O)cc2)Oc2cc(O)cc(O)c21
EC150 [4]: inactive | EC150 [5]: inactive

COc1ccc2c(=O)cc(-c3ccccc3)oc2c1
EC150 [3]: 21.9 µM | EC150 [2]: 21.9 µM

O=C1c2ccc(O)cc2OC(c2ccc(O)c(O)c2)C1O (stereo not drawn)
EC150 [4]: inactive | EC150 [5]: inactive

O=c1c(O)c(-c2ccccc2)oc2cc(O)cc(O)c12
EC150 [3]: 633 µM | EC150 [2]: 633 µM

Cc1ccc2oc(-c3ccccc3)cc(=O)c2c1
EC150 [3]: 3.6 µM | EC150 [2]: 3.6 µM

O=C1CC(c2ccccc2)Oc2ccc(O)cc21 (stereo not drawn)
EC150 [4]: inactive | IC50 [1]: 3.3 µM | EC150 [5]: inactive

O=c1cc(-c2ccccc2)oc2ccccc12 [FLAVONE]
IC50 [1]: 5.9 µM | IC50 ([1]; mda-kb2): 5.9 µM | EC150 [3]: 26.1 µM | EC150 [2]: 26.1 µM

COc1cccc2oc(-c3ccccc3)cc(=O)c12
IC50 [1]: 8.7 µM | EC150 [3]: 5.5 µM | EC150 [2]: 5.5 µM

O=c1cc(-c2ccccc2)oc2ccc(O)cc12 [6-HYDROXYFLAVONE]
AR antagonist activity at 100 uM (active/inactive) [6]: Not Active | EC150 [3]: 7.1 µM | EC150 [7]: 4.1 µM | Activity [8]: inactive | EC150 [2]: 7.1 µM

O=C1CC(c2ccccc2)Oc2ccccc21 (stereo not drawn) [FLAVANONE]
IC50 [1]: 20 µM | EC150 [3]: 380 µM | EC150 [2]: 380 µM

COc1ccc2oc(-c3ccccc3)cc(=O)c2c1
EC150 [3]: 0.7 µM | Ratio [9]: 1400 | Ratio [10]: 1400 | EC150 [2]: 0.7 µM | Ratio [11]: 3.6 | Ratio [12]: 3.6

C[C@]12CCC(=O)C[C@@H]1CC[C@@H]1[C@@H]2CC[C@]2(C)[C@@H](O)CC[C@@H]12
EC150 [2]: 0.0005 µM

O=c1c(O)c(-c2ccc(O)c(O)c2)oc2cc(O)ccc12
EC150 [4]: inactive | EC150 [5]: inactive

O=c1cc(-c2ccccc2)oc2ccc(Cl)cc12
EC150 [3]: 12.6 µM | EC150 [2]: 12.6 µM

O=c1cc(-c2ccc(O)c(O)c2)oc2cc(O)cc(O)c12
EC150 [3]: 18 µM | EC150 [2]: 18 µM

O=c1c(O)c(-c2ccccc2)oc2ccc(O)cc12
Activity [7]: Active | EC150 [2]: 1.54 µM

COc1cc(O)c2c(=O)c(-c3ccc(O)cc3)coc2c1 [PRUNETIN]
AR antagonist activity at 100 uM (active/inactive) [6]: Not Active | EC150 [3]: 3.2 µM | EC150 [2]: 3.2 µM

O=c1c(-c2ccc(O)cc2)coc2cc(O)cc(O)c12 [GENISTEIN]
IC50 [1]: 1300 µM | EC150 [3]: 4.4 µM | Ratio [9]: 10000 | Ratio [10]: 10000 | EC150 [2]: 4.4 µM | Ratio [11]: 23 | Ratio [12]: 23

O=c1cc(-c2ccccc2)oc2cc(O)ccc12
EC150 [3]: 3.1 µM | EC150 [2]: 3.1 µM

O=c1cc(-c2ccccc2)oc2cc(O)c(O)c(O)c12
EC150 [3]: 18.9 µM | Activity [7]: Active | EC150 [2]: 18.9 µM

COc1ccc2oc(-c3ccccc3)c(O)c(=O)c2c1
EC150 [3]: 10.3 µM | EC150 [2]: 10.3 µM

COc1ccc(-c2cc(=O)c3c(O)cc(O)cc3o2)cc1
EC150 [3]: 2.1 µM | EC150 [2]: 2.1 µM

O=c1cc(-c2ccccc2)oc2cc(O)cc(O)c12 [CHRYSIN]
AR antagonist activity at 100 uM (active/inactive) [6]: Active | EC150 [3]: 1.5 µM | Activity [13]: Active | EC150 [2]: 1.5 µM

O=c1c(-c2ccc(O)cc2)coc2cc(O)ccc12 [DAIDZEIN]
AR antagonist activity at 100 uM (active/inactive) [6]: Not Active | EC150 [3]: 10.1 µM | EC150 [2]: 10.1 µM
